What was measured:
[1] = test system: Aβtotal; test: In vivo efficacy Method 1: brain soluble Aβtotal by ELISA; design: species or system mouse; settings: Table 4a, single oral dose, overnight fasted animals, sacrificed after 4 h, soluble fraction of brain homogenates
Text: (§1) To determine whether acute administration of an Aβ42 lowering agent would reduce Aβ42 levels in vivo, non-transgenic rodents, e.g. mice or rats were used. Alternatively, two to three month old Tg2576 mice expressing APP695 containing the “Swedish” variant can be used or a transgenic mouse model developed by Dr. Fred Van Leuven (K.U. Leuven, Belgium) and co-workers, with neuron-specific expression of a clinical mutant of the human amyloid precursor protein [V717I] […] Young transgenic mice have high levels of Aβ in the brain but no detectable Aβ deposition. At approximately 6-8 months of age, the transgenic mice start to display spontaneous, progressive accumulation of β-amyloid (Aβ) in the brain, eventually resulting in amyloid plaques within the subiculum, hippocampus and cortex. Animals treated with the Aβ42 lowering agent were examined and compared to those untreated or treated with vehicle and brain levels of soluble Aβ42 and total Aβ would be quantitated by standard techniques, for example, using ELISA.
(§2) A typical protocol for measuring Aβ42 lowering in vivo is shown but it is only one of many variations that could be used to optimize the levels of detectable Aβ. For example, Aβ42 lowering compounds were formulated in 20% of Captisol® (a sulfobutyl ether of β-cyclodextrin) in water or 20% hydroxypropyl β cyclodextrin. The Aβ42 lowering agents were administered as a single oral dose or by any acceptable route of administration to overnight fasted animals. After 4 h, the animals were sacrificed and Aβ42 levels were analysed.
(§3) Blood was collected by decapitation and exsanguinations in EDTA-treated collection tubes. Blood was centrifuged at 1900 g for 10 minutes (min) at 4° C. and the plasma recovered and flash frozen for later analysis. The brain was removed from the cranium and hindbrain. The cerebellum was removed and the left and right hemisphere were separated. The left hemisphere was stored at −18° C. for quantitative analysis of test compound levels. The right hemisphere was rinsed with phosphate-buffered saline (PBS) buffer and immediately frozen on dry ice and stored at −80° C. until homogenization for biochemical assays.
(§4) All samples were sonicated for 30 seconds on ice at 20% power output (pulse mode). Homogenates were centrifuged at 221.300×g for 50 min. The resulting high speed supernatants were then transferred to fresh tubes and were optionally further purified before the next step. A portion of the supernatant was neutralized with 10% 0.5 M Tris-HCl and this was used to quantify Aβtotal.
The obtained supernatants were purified with Water Oasis HLB reverse phase columns (Waters Corp., Milford, Mass.) to remove non-specific immunoreactive material from the brain lysates prior subsequent Aβ detection. Using a vacuum manifold, all solutions were passed through the columns at a rate of approximately 1 ml per min, so the vacuum pressure was adjusted accordingly throughout the procedure. Columns were preconditioned with 1 ml of 100% MeOH, before equilibration with 1 ml of H2O, Non-neutralized brain lysates were loaded onto the columns. The loaded samples were then washed twice with the first wash performed with 1 ml of 5% MeOH, and the second wash with 1 ml of 30% MeOH. Finally, the Aβ was eluted from the columns and into 100×30 mm glass tubes, with a solution of 90% MeOH with 2% NH4OH. The eluate was then transferred into 1.5 ml tubes and concentrated in a speed-vac concentrator on high heat for about 1.5-2 h at 70° C. The concentrated Aβ was then resuspended in UltraCULTURE General Purpose Serum-Free Medium (Cambrex Corp., Walkersville, Md.) plus Protease Inhibitors added. […]

[2] = test system: Aβ42; test: In vivo efficacy Method 1: brain soluble Aβ42 by ELISA; design: species or system mouse; settings: Table 4a, single oral dose, overnight fasted animals, sacrificed after 4 h, soluble fraction of brain homogenates
Text: as §1, §2, §3, §4
The obtained supernatants were purified with Water Oasis HLB reverse phase columns (Waters Corp., Milford, Mass.) to remove non-specific immunoreactive material from the brain lysates prior subsequent Aβ detection. Using a vacuum manifold, all solutions were passed through the columns at a rate of approximately 1 ml per min, so the vacuum pressure was adjusted accordingly throughout the procedure. Columns were preconditioned with 1 ml of 100% MeOH, before equilibration with 1 ml of H2O, Non-neutralized brain lysates were loaded onto the columns. The loaded samples were then washed twice with the first wash performed with 1 ml of 5% MeOH, and the second wash with 1 ml of 30% MeOH. Finally, the Aβ was eluted from the columns and into 100×30 mm glass tubes, with a solution of 90% MeOH with 2% NH4OH. The eluate was then transferred into 1.5 ml tubes and concentrated in a speed-vac concentrator on high heat for about 1.5-2 h at 70° C. The concentrated Aβ was then resuspended in UltraCULTURE General Purpose Serum-Free Medium (Cambrex Corp., Walkersville, Md.) plus Protease Inhibitors added.
To quantify the amount of Aβ42 in the soluble fraction of the brain homogenates, commercially available Enzyme-Linked-Immunosorbent-Assay (ELISA) kits were used (e.g. Innotest® β-Amyloid(1-42), Innogenetics N.V., Ghent, Belgium). The Aβ42 ELISA was performed using the plate provided with the kit only.

[3] = test system: Aβ42; test: Screening for γ-secretase-modulating activity, Method 1: Aβ42 sandwich ELISA on SKNBE2 cell media; format: cell-based; settings: Homo sapiens, SKNBE2 cells carrying APP 695 wild type
In short: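 SKNBE2 cells expressing wild-type APP695 were treated with compound for 18 h in Ultraculture/1% glutamine. Secreted Aβ42 was quantified by sandwich ELISA (C-terminal capture, biotinylated 3D6, TMB, 450 nm), with WST-1 used as a toxicity check. IC50 was derived from 4-parameter fits of % inhibition or % of untreated control.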

[4] = test system: Aβtotal; test: Screening for γ-secretase-modulating activity, Method 1: Aβtotal sandwich ELISA on SKNBE2 cell media; format: cell-based; settings: Homo sapiens, SKNBE2 cells carrying APP 695 wild type
In short: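 SKNBE2 cells expressing wild-type APP 695 were treated with compound for 18 hours. Aβtotal in the medium was measured by sandwich ELISA (6E10 capture, biotinylated 4G8 detection, fluorogenic peroxidase read-out). IC50 came from a 4-parameter fit of % inhibition with top/bottom fixed at 100/0 and Hill slope 1, or as averaged IC50 from % of untreated control.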

[5] = test system: T1, Notch-processing activity of the γ-secretase-complex; test: Notch cell-based assay (N2-CHO/DL-CHO co-culture, Dual-Glo luciferase); design: species or system mouse; settings: N2-CHO/DL-CHO co-culture 16 h; read-out: average IC50 Notch cell-based assay (luciferase readout)
T1 construct: average IC50 Notch cell-based assay (luciferase readout); other: N2-CHO/DL-CHO co-culture 16 h; five-point curve 3 μM-
Text: The Notch cell-based assay was based on the interaction of Notch and its ligand in a co-culture system and utilized the Dual-Glo Luciferase Assay System (Promega) to monitor NICD production. 2 stable cell lines, N2-CHO and DL-CHO, were established to express full-length mouse Notch2 and Delta respectively. Cells that expressed mouse Notch were also transfected with 2 plasmids, pTP1-Luc and pCMV-RLuc, to express firefly and Renilla luciferase. Expression of firefly luciferase was under the control of TP1 promoter that responded to NICD activation.
N2-CHO cells were seeded at 1×10^5/well in 24-well plates the day before transfection. On the second day, cells were double transfected with 3 μg/well pTP1-Luc (expressing firefly luciferase) and 0.3 ng/well pCMV-RLuc (expressing Renilla luciferase). After 6 h incubation, transfected N2-CHO cells were washed and DL-CHO cells (2×10^5 cells/well) were added.
Compounds were pre-mixed with DL-CHO cell suspension in a five-point curve. Typically, compound treatment was performed in duplicate with a serial 1:10 dilution (3 μM-0.3 nM) in DMSO. The final concentration of DMSO in a given culture was 1%. Controls included non-transfected cells and transfected cells treated with a GSI or DMSO only. Luciferase assays were performed after 16 h co-culture and compound treatment.
The luciferase assay was carried out according to manufacture's instructions. Briefly, cells were washed with PBS (Phosphate Buffered Saline), lysed with Passive Lysis Buffer (Promega), and incubated at room temperature for 20 min. Lysates were mixed with Dual-Glo Luciferase Reagent and the firefly luciferase activity was measured by reading the luminescence signal in the EnVision 2101 Multilabel reader. Dual-Glo Stop & Glo Reagent was then added to each well and the Renilla luciferase signal was measured.

[6] = test system: Notch-processing activity of the γ-secretase-complex; test: Notch cell-free assay (NICD production from recombinant Notch substrate N99); format: biochemical, mouse; settings: 1 μM test compound, 0.3-0.5 μM Notch substrate, 37° C. for 6 to 22 h, western blotting
Procedure: The Notch transmembrane domain is cleaved by gamma secretase to release
Notch Intracellular C-terminal Domain (NICD).
To monitor the effect of compounds on NICD production, a recombinant Notch substrate (N99) was prepared. The Notch substrate, comprised of mouse Notch fragment (V1711-E1809), an N-terminal methionine and a C-terminal FLAG sequence ([…]), was expressed in E. coli and purified on a column containing an anti-FLAG M2 affinity matrix.
A typical Notch cell-free assay consisted of 0.3-0.5 μM Notch substrate, an enriched preparation of γ secretase and 1 μM of a test compound (compounds 8, 15, 92, 108, 114 and 130 of the present invention). Controls included a γ secretase inhibitor (GSI), such as (2S)—N-[2-(3,5-difluorophenyeacetyl]-L-alanyl-2-phenyl-glycine 1,1-dimethylethyl ester (DAPT) or (2S)-2-hydroxy-3-methyl-N-[(1S)-1-methyl-2-oxo-2-[[(1S)-2,3,4,5-tetrahydro-3-methyl-2-oxo-1H-3-benzazepin-1-yl]amino]ethyl]-butanamide (Semagacestat), and DMSO, the final concentration of DMSO being 1%. Recombinant Notch substrate was pre-treated with 17 μM DTT (1,4-dithiothreitol) and 0.02% SDS (Sodium Dodecyl Sulfate) and heated at 65° C. for 10 min. The mixture of substrate, gamma secretase and compound/DMSO was incubated at 37° C. for 6 to 22 hours (h). 6 h incubation was sufficient to produce the maximal amount of NICD and the cleaved product remained stable for an additional 16 h. Reaction products were processed for SDS PAGE (Sodium Dodecyl Sulfate-Poly Acrylamide Gel Electrophoresis) and western blotting. Blots were probed with an anti-Flag M2 antibody, followed by LI-COR infrared secondary antibody, and analyzed with the Odyssey Infrared Imaging System (LI-COR® Biosciences).

[7] = Table 3a, 18 hours, XLfit, top/bottom fixed to 100 and 0, hill slope 1
[8] = Table 3b, non-linear regression of % of control, averaged IC50 values

Compound	Aβtotal (% Ctrl) _Mean [1]	melting point	Aβ42 (% Ctrl) _Mean [2]	IC50 [3, 7]	IC50 [3, 8]	IC50 [4, 7]	IC50 [4, 8]	IC50 [5]	effect on the Notch-processing activity of the γ-secretase-complex (production of NICD) [6]
Cc1cn(-c2ncc(Nc3cccc4c3nc(-c3ccc(F)cc3)n4C)cn2)cn1 [Compound 6]	91 % Ctrl	201.7 °C	66 % Ctrl	29 nM	28 nM	> 1000 nM	> 3000 nM	–	–
CC(NC(=O)Cc1cc(F)cc(F)c1)C(=O)NC(C(=O)OC(C)(C)C)c1ccccc1 [DAPT, (2S)—N-[2-(3,5-difluorophenyeacetyl]-L-alanyl-2-phenyl-glycine 1,1-dimethylethyl ester, reference compound]	–	–	–	–	–	–	–	45 nM	blocked
CC(C)[C@H](O)C(=O)N[C@@H](C)C(=O)N[C@@H]1C(=O)N(C)CCc2ccccc21 [Semagacestat, (2S)-2-hydroxy-3-methyl-N-[(1S)-1-methyl-2-oxo-2-[[(1S)-2,3,4,5-tetrahydro-3-methyl-2-oxo-1H-3-benzazepin-1-yl]amino]ethyl]-butanamide, reference compound]	–	–	–	–	–	–	–	40 nM	blocked
